The test system of one assay is ovariectomized mice. As to the kind of experiment: Osteogenic effect of OGP analogs in ovariectomized mice. The class given is in vivo, C57B1/6 mice. To be noted: OVX mice, subcutaneous daily for six weeks, proximal tibial metaphysis, FIG. 5. The procedure: Thirty two female C57B1/6 mice weighing 25 gm underwent conventional bilateral ovariectomy (OVX). Additional eight control animals were subjected to sham OVX: the anterior abdominal wall was opened and the ovaries exposed but left intact. All animals were left untreated for 30 days. The OVX animals were then divided into four groups each consisting of eight mice. All animals were injected subcutaneously in the nape daily for six weeks with the following solutions: One group was given OGP(1-14) (SEQ ID NO: 1), 30 ng/day/mouse. A second group received OGP(10-14) (SEQ ID NO: 61), 10 ng/day/mouse. A third group was given desamino[Tyr^10]OGP(10-14) (SEQ ID NO: 4). All compounds were dissolved in phosphate buffered saline (PBS). An additional control OVX group was given the PBS solvent only. One day after termination of treatment the animals were killed and the tibial bones separated, fixed in phosphate buffered formalin and subjected to conventional decalcified histological processing. Sections through the midsagital region of the tibia were stained with Masson trichrome. Bone volume was determined in the secondary spongiosa of the proximal metaphysis in two sections 200-300 μm apart from each other in one tibia from each animal using an automated computerized image analyzer. The value for each animal was the mean reading from the two sections.

The subject of assay [1] is fibroblastic NIH 3T3 cells. In words: Proliferation assay, fibroblastic NIH 3T3 cells. The class given is cell-based. The settings on record: analog concentration 10^−11M; mean cell number relative to positive control OGP(1-14) = 1.00. The text has this: (§1) Some of the analogs were subjected to a dose response analysis.
For another assay, the system named is ovariectomized rats. As to the kind of experiment: Number of bone marrow derived osteoblastic colonies from ovariectomized rats. The class given is in vivo, Sabra rats. The settings on record: OVX rats, 100 ng/day/rat subcutaneous daily for eight weeks, FIG. 6. The method, then: Twenty five female Sabra rats weighing 250 g each were subjected to bilateral ovariectomy (OVX). Additional five control animals underwent sham OVX. All animals were left untreated for 30 days. Then the OVX animals were divided into five groups, each consisting of five rats. All animals were injected subcutaneously in the nape daily for eight weeks with following solutions: One group was given to OGP(10-14) (SEQ ID NO: 61), 100 ng/day/rat. A second group was given desamino[Tyr^10]OGP(10-14) (SEQ ID NO: 4), 100 ng/day/rat. A third group was given c(Tyr-Gly-Phe-Gly-Gly) (SEQ ID NO: 35), 100 ng/day/rat. The fourth group was given retro OGP ([…] (SEQ ID NO: 60), 300 ng/day/rat. All compounds were dissolved in PBS. An additional control OVX group was given the PBS solvent only. After termination of treatment the animals were killed and the femoral and tibial bone marrow from both posterior limbs was pooled and transferred to alpha minimal essential medium (αMEM). Bone marrow cell cultures were set in 35 mm dishes, 10 dishes per animal, as described previously [Rickard, D. J., et al (1994) Biology, 161:218]. The total number of fibroblastic colonies (CFU-f) formed was determined after three weeks in culture. Immediately after, the CFU-f cultures were stained for alkaline phosphates and co-stained for mineral with alizarin-red-S. The alizarin-red-S positive colonies were considered osteoblastic. Their frequency was expressed as their percentage of the total numbers of colonies. The value for each animal was calculated as the mean percentage obtained in the 10 dishes.

Assay [2] has as its system osteoblastic MC3T3 E1 and fibroblastic NIH 3T3 cells. In words: Proliferation assay, text statements not split by cell line. The class given is cell-based. The settings on record: summary of Table 1. The method, then: The effect of OGP analogs on osteoblastic MC3T3 E1 and fibroblastic NIH 3T3 cell proliferation was measured as before [Bab, I., et al (1992) EMBO J. 11:1867]. Some of the analogs were subjected to a dose response analysis. Otherwise the analog concentration was 10^−13M and 10^−11M in the MC3T3 E1 and NIH3T3 cell cultures, respectively. The mean cell number in triplicate culture wells was expressed as percent of a positive control triplicate dosed with OGP(1-14) (SEQ ID NO: 1). Experiments testing one dose per cell line were repeated at least four times and the activity of individual analogs expressed as the mean of results and 95% confidence limit obtained in these repetitive experiments.

Assay [3] relates to osteoblastic MC3T3 E1 cells. In words: Proliferation assay, osteoblastic MC3T3 E1 cells. The class given is cell-based. The settings on record: analog concentration 10^−13M; mean cell number relative to positive control OGP(1-14) = 1.00.
Text: as §1

“Also recorded” adds a separate entry of the source. Where no end group is shown, it is not given here. [ ]: non-standard residue; d: D form. The star is where a group is joined. Desaminotyrosyl = O=C(CCc1ccc(O)cc1)*

Regarding “desamino Tyr-Gly-Phe-Gly-Gly ([Desaminotyrosyl]GFGG) [desamino[Tyr^10]OGP(10-14)]”, in the assay on ovariectomized mice, the “reversal of trabecular bone loss (in words)” value was “either similar or superior to the parent oligopeptides; also recorded: either similar or superior to those of OGP(1-14)”. Also, in assay [1], the “Relative in vitro potency (95% confidence limit) NIH 3T3 cells” value is 0.66. In the assay on ovariectomized rats, the “reversal of reduction in osteoprogenitor cells / osteoblastic colonies (in words)” value is “either similar or superior to the parent oligopeptides; also recorded: either similar or superior to those of OGP(1-14)”. Besides, the “retention of OGP-like activity” value in assay [2] is recorded as “approximately 70%”. In addition, in assay [3], the “Relative in vitro potency (95% confidence limit) MC3T3 E1 cells” value is 0.77.

(Values after patent US6479460B1, “Synthetic peptides and pseudopeptides having osteogenic activity and pharmaceutical compositions containing the same” (Yissum Research Development Company of the Hebrew …, priority 1996, dated 2002).)
